According to ChEMBL document CHEMBL5518181, “Studies of antibacterial activity (in vitro and in vivo) and mode of action for des-acyl tridecaptins (DATs)” (Eur J Med Chem, 2024):
Values after ≈ are worked out from the molar mass of the structure shown.

Legend:
[1] = test system: Escherichia coli; experiment: Antibacterial activity against wild-type Escherichia coli ATCC 25922 assessed as inhibition of bacterial growth incubated for 18 hrs; format: functional; settings: read-out: MIC100
[2] = Hemolytic activity in human red blood cells at 400 ug/ml incubated for 45 mins by spectrophotometric analysis relative to control; format: toxicity, cell-based, Erythrocyte; settings: red blood cells (erythrocytes), at 400 µg/mL, read-out: Activity
[3] = Cytotoxicity against human HepG2 cells incubated for 40 hrs by celltiter-glo luminescent cell viability assay; format: toxicity, cell-based
[4] = test system: Klebsiella pneumoniae; experiment: Antibacterial activity against wild-type Klebsiella pneumoniae ATCC 13883 assessed as inhibition of bacterial growth incubated for 18 hrs; format: functional; settings: read-out: MIC100
[5] = Binding affinity to gram negative bacterial lipid II assessed as dissociation constant by ITC analysis; parameters: species or system Bacteria
[6] = test system: Acinetobacter baumannii; experiment: Antibacterial activity against wild-type Acinetobacter baumannii ATCC 19606 assessed as inhibition of bacterial growth incubated for 20 hrs; format: functional; settings: read-out: MIC100
[7] = test system: Staphylococcus aureus; experiment: Antibacterial activity against […] assessed as inhibition of bacterial growth incubated for 18 hrs; format: functional; settings: ATCC 29213, read-out: MIC100
[8] = test system: Escherichia coli; experiment: Antibacterial activity against Escherichia coli ATCC 25922 harboring tolC knock-out assessed as inhibition of bacterial growth incubated for 18 hrs; format: functional; settings: read-out: MIC100
[9] = Hydrophobicity of compound assessed as %MeCN at peak elution by RP-HPLC analysis; format: physicochemical
[10] = test system: Escherichia coli; experiment: Antibacterial activity against Escherichia coli ATCC 25922 harboring hldE knock-out assessed as inhibition of bacterial growth incubated for 18 hrs; format: functional; settings: read-out: MIC100
[11] = test system: Pseudomonas aeruginosa; experiment: Antibacterial activity against wild-type Pseudomonas aeruginosa PAO1 assessed as inhibition of bacterial growth incubated for 24 hrs; format: functional; settings: read-out: MIC100
[12] = test system: Klebsiella pneumoniae; experiment: Antibacterial activity against wild-type Klebsiella pneumoniae ATCC 13883 assessed as inhibition of bacterial growth incubated for 18 hrs in presence of 50% heat inactivated human serum; format: functional; settings: read-out: MIC100
[13] = test system: Escherichia coli; experiment: Antibacterial activity against wild-type Escherichia coli ATCC 25922 assessed as inhibition of bacterial growth incubated for 18 hrs in presence of 50% heat inactivated human serum; format: functional; settings: read-out: MIC100

Row | Compound | MIC [1] | hemolysis at 0.75 h, 400 ug/ml [2] | IC50 at 40 h [3] | MIC [4] | Kd [5] | MIC [6] | MIC [7] | MIC [8] | MeCN percentage at peak elution [9] | MIC [10] | MIC [11] | MIC [12] | MIC [13]
1 | CC[C@H](C)[C@@H](NC(=O)[C@@H](NC(=O)[C@H](CCC(=O)O)NC(=O)[C@H](Cc1ccccc1)NC(=O)[C@@H](CCN)NC(=O)[C@H](CCN)NC(=O)[C@H](CO)NC(=O)[C@@H](Cc1c[nH]c2ccccc12)NC(=O)[C@@H](CO)NC(=O)CNC(=O)[C@@H](CCN)NC(=O)[C@H](N)C(C)C)C(C)C)C(=O)O | > 64 µg/mL | 1% | > 170 µg/mL | > 64 µg/mL | 230 nM |  |  |  |  |  |  |  | 
2 | CC(C)[C@H](NC(=O)[C@H](CCC(=O)O)NC(=O)[C@H](Cc1ccccc1)NC(=O)[C@@H](CCN)NC(=O)[C@H](CCN)NC(=O)[C@H](CO)NC(=O)[C@@H](Cc1c[nH]c2ccccc12)NC(=O)[C@@H](CO)NC(=O)CNC(=O)[C@@H](CCN)NC(=O)[C@H](NC(=O)[C@H](C)N)C(C)C)C(=O)N[C@H](C)C(=O)N[C@@H](C)C(=O)O | 64 µg/mL (≈ 45 µM) | 5% | 47 µg/mL (≈ 33 µM) | 32 µg/mL (≈ 22.5 µM) |  | > 64 µg/mL | > 64 µg/mL | 32 µg/mL (≈ 22.5 µM) | 37.7% | 8 µg/mL (≈ 5.62 µM) | 64 µg/mL (≈ 45 µM) | 16 µg/mL | 32 µg/mL
3 | CC[C@H](C)[C@@H](NC(=O)[C@@H](NC(=O)[C@H](C)NC(=O)[C@H](Cc1ccccc1)NC(=O)[C@@H](CCN)NC(=O)[C@H](CCN)NC(=O)[C@H](CO)NC(=O)[C@@H](Cc1c[nH]c2ccccc12)NC(=O)[C@@H](CO)NC(=O)CNC(=O)[C@@H](CCN)NC(=O)[C@H](N)C(C)C)C(C)C)C(=O)N[C@@H](C)C(=O)O | > 64 µg/mL | 0% | > 170 µg/mL | > 64 µg/mL | 1220 nM |  |  |  |  |  |  |  | 
4 | CC[C@H](C)[C@@H](NC(=O)[C@@H](NC(=O)[C@H](CCC(=O)O)NC(=O)[C@H](Cc1ccccc1)NC(=O)[C@@H](CCN)NC(=O)[C@H](CCN)NC(=O)[C@H](CO)NC(=O)[C@@H](Cc1c[nH]c2ccccc12)NC(=O)[C@@H](CO)NC(=O)CNC(=O)[C@@H](CCN)NC(=O)[C@H](NC(=O)[C@H](C)N)C(C)C)C(C)C)C(=O)N[C@@H](C)C(N)=O | 8 µg/mL (≈ 5.46 µM) | 1.5% | > 170 µg/mL | 32 µg/mL (≈ 21.8 µM) | 770 nM |  |  |  |  |  |  |  | 
5 | CC[C@H](C)[C@@H](NC(=O)[C@@H](NC(=O)[C@H](CCC(=O)O)NC(=O)[C@H](Cc1ccc(-c2ccccc2)cc1)NC(=O)[C@@H](CCN)NC(=O)[C@H](CCN)NC(=O)[C@H](CO)NC(=O)[C@@H](Cc1c[nH]c2ccccc12)NC(=O)[C@@H](CO)NC(=O)CNC(=O)[C@@H](CCN)NC(=O)[C@H](N)C(C)C)C(C)C)C(=O)N[C@@H](C)C(=O)O | 8 µg/mL (≈ 5.44 µM) | 24.5% | 23 µg/mL (≈ 15.6 µM) | 4 µg/mL (≈ 2.72 µM) |  | > 64 µg/mL | > 64 µg/mL | < 0.125 µg/mL |  | 2 µg/mL (≈ 1.36 µM) | 64 µg/mL (≈ 43.5 µM) | 4 µg/mL | 
6 | CC[C@H](C)[C@@H](NC(=O)[C@@H](NC(=O)[C@H](C)NC(=O)[C@H](Cc1ccccc1)NC(=O)[C@@H](CCN)NC(=O)[C@H](CCN)NC(=O)[C@H](CO)NC(=O)[C@@H](Cc1c[nH]c2ccccc12)NC(=O)[C@@H](CO)NC(=O)CNC(=O)[C@@H](CCN)NC(=O)[C@H](NC(=O)[C@H](C)N)C(C)C)C(C)C)C(=O)N[C@@H](C)C(=O)O | 8 µg/mL (≈ 5.68 µM) | 0.3% | 67 µg/mL (≈ 47.6 µM) | 16 µg/mL (≈ 11.4 µM) |  | > 64 µg/mL | > 64 µg/mL | 8 µg/mL (≈ 5.68 µM) | 40.1% | 2 µg/mL (≈ 1.42 µM) | 64 µg/mL (≈ 45.5 µM) | 32 µg/mL | 4 µg/mL
7 | CC[C@H](C)[C@@H](NC(=O)[C@@H](NC(=O)[C@H](CCC(=O)O)NC(=O)[C@H](Cc1ccccc1)NC(=O)[C@@H](CCN)NC(=O)[C@H](CCN)NC(=O)[C@H](CO)NC(=O)[C@@H](Cc1c[nH]c2ccccc12)NC(=O)[C@@H](CO)NC(=O)[C@H](CC(=O)O)NC(=O)[C@@H](CCN)NC(=O)[C@H](N)C(C)C)C(C)C)C(=O)N[C@@H](C)C(=O)O | > 64 µg/mL | 0% | 13 µg/mL (≈ 8.95 µM) | > 64 µg/mL |  | > 64 µg/mL | > 64 µg/mL |  | 37.8% |  | 64 µg/mL (≈ 44.1 µM) | > 64 µg/mL | 64 µg/mL
8 | CC[C@H](C)[C@@H](NC(=O)[C@@H](NC(=O)[C@H](CCC(N)=O)NC(=O)[C@H](Cc1ccccc1)NC(=O)[C@@H](CCN)NC(=O)[C@H](CCN)NC(=O)[C@H](CO)NC(=O)[C@@H](Cc1c[nH]c2ccccc12)NC(=O)[C@@H](CO)NC(=O)CNC(=O)[C@@H](CCN)NC(=O)[C@H](N)C(C)C)C(C)C)C(=O)N[C@@H](C)C(=O)O | ≥ 32 µg/mL | 2.1% | 41 µg/mL (≈ 29.4 µM) | > 64 µg/mL | 1400 nM |  |  |  |  |  |  |  | 
9 | CC[C@@H](C)[C@@H](NC(=O)[C@@H](NC(=O)[C@H](CCC(=O)O)NC(=O)[C@H](Cc1ccccc1)NC(=O)[C@@H](CCN)NC(=O)[C@H](CCN)NC(=O)[C@H](CO)NC(=O)[C@@H](Cc1c[nH]c2ccccc12)NC(=O)[C@@H](CO)NC(=O)CNC(=O)[C@@H](CCN)NC(=O)[C@H](N)C(C)C)C(C)C)C(=O)N[C@@H](C)C(=O)O | 64 µg/mL (≈ 45.9 µM) | 5.5% | 91 µg/mL (≈ 65.3 µM) | 64 µg/mL (≈ 45.9 µM) |  | 64 µg/mL (≈ 45.9 µM) | > 64 µg/mL | 4 µg/mL (≈ 2.87 µM) | 39.5% | 8 µg/mL (≈ 5.74 µM) | > 64 µg/mL | 8 µg/mL | 8 µg/mL
10 | CC[C@H](C)[C@@H](NC(=O)[C@@H](NC(=O)[C@H](CCC(=O)O)NC(=O)[C@H](Cc1ccccc1)NC(=O)[C@@H](CCN)NC(=O)[C@H](CCN)NC(=O)[C@H](CO)NC(=O)[C@@H](Cc1c[nH]c2ccccc12)NC(=O)[C@@H](CO)NC(=O)CNC(=O)[C@@H](CCN)NC(=O)[C@H](NC(=O)[C@@H](C)N)C(C)C)C(C)C)C(=O)N[C@@H](C)C(=O)O | 4 µg/mL (≈ 2.73 µM) | 2.3% | 98 µg/mL (≈ 66.9 µM) | 2 µg/mL (≈ 1.36 µM) |  | > 64 µg/mL | > 64 µg/mL | 4 µg/mL (≈ 2.73 µM) | 39.6% | 2 µg/mL (≈ 1.36 µM) | 32 µg/mL (≈ 21.8 µM) | 4 µg/mL | 4 µg/mL
11 | CC[C@H](C)[C@@H](NC(=O)[C@@H](NC(=O)[C@H](CCC(=O)O)NC(=O)[C@H](Cc1ccccc1)NC(=O)[C@@H](C)NC(=O)[C@H](CCN)NC(=O)[C@H](CO)NC(=O)[C@@H](Cc1c[nH]c2ccccc12)NC(=O)[C@@H](CO)NC(=O)CNC(=O)[C@@H](CCN)NC(=O)[C@H](NC(=O)[C@H](C)N)C(C)C)C(C)C)C(=O)N[C@@H](C)C(=O)O | 16 µg/mL (≈ 11.1 µM) | 4.5% | 35 µg/mL (≈ 24.4 µM) | 16 µg/mL (≈ 11.1 µM) |  | 64 µg/mL (≈ 44.5 µM) | > 64 µg/mL | 8 µg/mL (≈ 5.57 µM) | 45.9% | 8 µg/mL (≈ 5.57 µM) | > 64 µg/mL | 16 µg/mL | 8 µg/mL
12 | CC[C@H](C)[C@@H](NC(=O)[C@H](CC1CCCCC1)NC(=O)[C@H](CCC(=O)O)NC(=O)[C@H](Cc1ccccc1)NC(=O)[C@@H](CCN)NC(=O)[C@H](CCN)NC(=O)[C@H](CO)NC(=O)[C@@H](Cc1c[nH]c2ccccc12)NC(=O)[C@@H](CO)NC(=O)CNC(=O)[C@@H](CCN)NC(=O)[C@H](N)C(C)C)C(=O)N[C@@H](C)C(=O)O | 8 µg/mL (≈ 5.52 µM) | 59.1% | 46 µg/mL (≈ 31.8 µM) | 8 µg/mL (≈ 5.52 µM) |  | 64 µg/mL (≈ 44.2 µM) | > 64 µg/mL | < 0.125 µg/mL | 43.9% | 2 µg/mL (≈ 1.38 µM) | > 64 µg/mL | 4 µg/mL | 16 µg/mL
